Tests used:
[1] = target: HCV cap-independent translation; test: In vitro translation assay, FF-HCV-Ren construct, cap-independent (Ren luciferase); type: biochemical, rabbit reticulocyte lysates
Source text: (§1) The bicistronic dual-reporter constructs that contain the firefly luciferase (FF) sequence, followed by the (encephalomyocarditis virus) EmCV and Hepatitis C virus (HCV) IRES, respectively, and the Renilla reniformis (Ren) luciferase sequence, has been previously described (Bordeleau Me., et al. Functional characterization of IRESes by an inhibitor of the RNA helicase eIF4A. Nature chemical biology. 2006; 2:213-20). For measurement of translation from the FF-EmCV-Ren and FF-HCV-Ren constructs, rabbit reticulocyte lysates (RRL) (Life Technologies, Carlsbad, Calif., USA) and the Dual-Glo (Promega, Madison, Wis., USA) read-outs were chosen. Two μl rabbit reticulocyte lysates mixed with Translation Mix 20× (-Met) and Translation Mix 20× (-Leu) in a ratio of 1:1 were pre-incubated with test compounds in 1536-well plates for 1 h at room temperature. Then, translation was started by adding 0.1 μg RNA per well and incubated for 2 h at 30° C. After a short chill phase, 2.5 μl Dual-Glo reagent 1 was added to each well and incubated for 10 min before reading the FF luciferase activity with the ViewLux uHTS Microplate Imager (Perkin Elmer, Waltham, Mass., USA). Directly after, 2.5 μl Dual-Glo reagent 2 was dispensed to each well and incubated at room temperature for 10 min before reading the Ren luciferase activity on the ViewLux. To exclude the possibility that test compounds interfere with any of the luciferase activities, a counter assay was performed in which the compounds were added after the completion of the in vitro translation.

[2] = target: EmCV Cap-dependent translation; test: In vitro translation assay, FF-EmCV-Ren construct, cap-dependent (FF luciferase); type: biochemical, rabbit reticulocyte lysates
Source text: as §1

[3] = target: HCV cap-dependent translation; test: In vitro translation assay, FF-HCV-Ren construct, cap-dependent (FF luciferase); type: biochemical, rabbit reticulocyte lysates
Source text: as §1

A375 = test: 48 h Cytotoxicity A375; type: cell-based; settings: Homo sapiens, A-375
[4] = target: EmCV Cap-independent translation; test: In vitro translation assay, FF-EmCV-Ren construct, cap-independent (Ren luciferase); type: biochemical, rabbit reticulocyte lysates
Source text: as §1

O=C(/C(Br)=C/c1cncc(F)c1)c1c(-c2ccccc2)c2cc(Cl)ccc2[nH]c1=O (single isomer, unassigned) [Compound 110, 3-[(2Z)-2-bromo-3-(5-fluoro(3-pyridyl))prop-2-enoyl]-6-chloro-4-phenylhydroquinolin-2-one]
IC50 [1]: 2 to 10 µM | IC50 [2]: 2 to 10 µM | IC50 [3]: 2 to 10 µM | IC50 (A375): 2 to 10 µM | IC50 [4]: 2 to 10 µM

O=C(/C=C/c1nc2ccccc2[nH]1)c1c(-c2ccc(C(F)(F)F)cc2)c2cc(Cl)ccc2[nH]c1=O [Compound 1, 3-(3-1H-Benzoimidazol-2-yl-acryloyl)-6-chloro-4-(4-trifluoromethyl-phenyl)-1H-quinolin-2-one]
IC50 [1]: 2 to 10 µM | IC50 [2]: 2 to 10 µM | IC50 [3]: 2 to 10 µM | IC50 (A375): 2 to 10 µM | IC50 [4]: 2 to 10 µM

O=C(/C=C/c1nc2ccccc2[nH]1)c1c(-c2ccc(OC(F)(F)F)cc2)c2cc(Cl)ccc2[nH]c1=O [Compound 2, 3-(3-1H-Benzoimidazol-2-yl-acryloyl)-6-chloro-4-(4-trifluoromethoxy-phenyl)-1H-quinolin-2-one]
IC50 [1]: 2 to 10 µM | IC50 [2]: 2 to 10 µM | IC50 [3]: 2 to 10 µM | IC50 (A375): < 2 µM | IC50 [4]: 2 to 10 µM

COc1ccc(-c2c(C(=O)/C=C/c3nc4ccccc4[nH]3)c(=O)[nH]c3ccc(Cl)cc23)cc1 [Compound 3, 3-(3-1H-Benzoimidazol-2-yl-acryloyl)-6-chloro-4-(4-methoxy-phenyl)-1H-quinolin-2-one]
IC50 [1]: > 20 µM | IC50 [2]: 10 to 20 µM | IC50 [3]: 10 to 20 µM | IC50 (A375): < 2 µM | IC50 [4]: > 20 µM

Cc1ccc(-c2c(C(=O)/C=C/c3nc4ccccc4[nH]3)c(=O)[nH]c3ccc(Cl)cc23)cc1 [Compound 4, 3-(3-1H-Benzoimidazol-2-yl-acryloyl)-6-chloro-4-p-tolyl-1H-quinolin-2-one]
IC50 [1]: 2 to 10 µM | IC50 [2]: 2 to 10 µM | IC50 [3]: 2 to 10 µM | IC50 (A375): 2 to 10 µM | IC50 [4]: 2 to 10 µM

O=C(/C=C/c1nc2ccccc2[nH]1)c1c(-c2ccc(Cl)cc2)c2cc(Cl)ccc2[nH]c1=O [Compound 5, 3-(3-1H-Benzoimidazol-2-yl-acryloyl)-6-chloro-4-(4-chloro-phenyl)-1H-quinolin-2-one]
IC50 [1]: 10 to 20 µM | IC50 [2]: 2 to 10 µM | IC50 [3]: 10 to 20 µM | IC50 (A375): < 2 µM | IC50 [4]: 10 to 20 µM

O=C(/C=C/c1nc2ccccc2[nH]1)c1c(-c2cccnc2)c2cc(Cl)ccc2[nH]c1=O [Compound 6, 3-(3-1H-Benzoimidazol-2-yl-acryloyl)-6-chloro-4-pyridin-3-yl-1H-quinolin-2-one]
IC50 [1]: 10 to 20 µM | IC50 [2]: 2 to 10 µM | IC50 [3]: 10 to 20 µM | IC50 (A375): > 20 µM | IC50 [4]: 2 to 10 µM

O=C(/C=C/c1ccccc1)c1c(-c2cccnc2)c2cc(Cl)ccc2[nH]c1=O [Compound 7, 6-Chloro-3-(3-phenyl-acryloyl)-4-pyridin-3-yl-1H-quinolin-2-one]
IC50 [1]: 10 to 20 µM | IC50 [2]: 2 to 10 µM | IC50 [3]: 10 to 20 µM | IC50 (A375): 10 to 20 µM | IC50 [4]: 10 to 20 µM

O=C(/C=C/c1nc2ccccc2[nH]1)c1c(-c2ccccn2)c2cc(Cl)ccc2[nH]c1=O [Compound 8, 3-(3-1H-Benzoimidazol-2-yl-acryloyl)-6-chloro-4-pyridin-2-yl-1H-quinolin-2-one]
IC50 [1]: > 20 µM | IC50 [2]: > 20 µM | IC50 [3]: > 20 µM | IC50 (A375): 10 to 20 µM | IC50 [4]: > 20 µM

O=C(/C=C/c1nc2ccccc2[nH]1)c1c(-c2cccs2)c2cc(Cl)ccc2[nH]c1=O [Compound 9, 3-(3-1H-Benzoimidazol-2-yl-acryloyl)-6-chloro-4-thiophen-2-yl-1H-quinolin-2-one]
IC50 [1]: 10 to 20 µM | IC50 [2]: 2 to 10 µM | IC50 [3]: 10 to 20 µM | IC50 (A375): 2 to 10 µM | IC50 [4]: 2 to 10 µM

O=C(/C=C/c1ccccc1)c1c(-c2cccs2)c2cc(Cl)ccc2[nH]c1=O [Compound 10]
IC50 [1]: 2 to 10 µM | IC50 [2]: 2 to 10 µM | IC50 [3]: 10 to 20 µM | IC50 (A375): > 20 µM | IC50 [4]: 2 to 10 µM

O=C(/C=C/c1nc2ccccc2[nH]1)c1c(C2CCCCC2)c2cc(Cl)ccc2[nH]c1=O [Compound 11, (E)-3-(3-(1H-benzo[d]imidazol-2-yl)acryloyl)-6-chloro-4-cyclohexylquinolin-2(1H)-one]
IC50 [1]: 2 to 10 µM | IC50 [2]: 2 to 10 µM | IC50 [3]: 2 to 10 µM | IC50 (A375): < 2 µM | IC50 [4]: 2 to 10 µM

O=C(/C=C/c1nc2ccccc2[nH]1)c1c(-c2ccccc2)c2cc([N+](=O)[O-])ccc2[nH]c1=O [Compound 13, 3-(3-1H-Benzoimidazol-2-yl-acryloyl)-6-nitro-4-phenyl-1H-quinolin-2-one]
IC50 [1]: 2 to 10 µM | IC50 [2]: 2 to 10 µM | IC50 [3]: 10 to 20 µM | IC50 (A375): 2 to 10 µM | IC50 [4]: 2 to 10 µM

Nc1ccc2[nH]c(=O)c(C(=O)CCc3nc4ccccc4[nH]3)c(-c3ccccc3)c2c1 [Compound 14, 6-Amino-3-(3-1H-benzoimidazol-2-yl-propionyl)-4-phenyl-1H-quinolin-2-one]
IC50 [1]: > 20 µM | IC50 [2]: > 20 µM | IC50 [3]: > 20 µM | IC50 (A375): > 20 µM | IC50 [4]: > 20 µM

Nc1ccc2[nH]c(=O)c(C(=O)/C=C/c3nc4ccccc4[nH]3)c(-c3ccccc3)c2c1 [Compound 15, 6-Amino-3-(3-1H-benzoimidazol-2-yl-acryloyl)-4-phenyl-1H-quinolin-2-one]
IC50 [1]: > 20 µM | IC50 [2]: 10 to 20 µM | IC50 [3]: 10 to 20 µM | IC50 (A375): > 20 µM | IC50 [4]: 10 to 20 µM

O=C(/C=C/c1ccccc1)c1c(-c2ccccc2)c2cc([N+](=O)[O-])ccc2[nH]c1=O [Compound 16, 6-Nitro-4-phenyl-3-(3-phenyl-acryloyl)-1H-quinolin-2-one]
IC50 [1]: 2 to 10 µM | IC50 [2]: 2 to 10 µM | IC50 [3]: 10 to 20 µM | IC50 (A375): 2 to 10 µM | IC50 [4]: 2 to 10 µM

CN(C)c1ccc(/C=C/C(=O)c2c(-c3ccccc3)c3cc([N+](=O)[O-])ccc3[nH]c2=O)cc1 [Compound 17, 3-[3-(4-Dimethylamino-phenyl)-acryloyl]-6-nitro-4-phenyl-1H-quinolin-2-one]
IC50 [1]: > 20 µM | IC50 [2]: > 20 µM | IC50 [3]: > 20 µM | IC50 (A375): > 20 µM | IC50 [4]: > 20 µM

O=C(/C=C/c1nc2ccccc2[nH]1)c1c(-c2ccccc2)c2cc(C(F)(F)F)ccc2[nH]c1=O [Compound 19, 3-(3-1H-Benzoimidazol-2-yl-acryloyl)-4-phenyl-6-trifluoromethyl-1H-quinolin-2-one]
IC50 [1]: 10 to 20 µM | IC50 [2]: 2 to 10 µM | IC50 [3]: 10 to 20 µM | IC50 (A375): 2 to 10 µM | IC50 [4]: 2 to 10 µM

O=C(/C=C/c1nc2ccccc2[nH]1)c1c(-c2ccccc2)c2cc(F)ccc2[nH]c1=O [Compound 20, 3-(3-1H-Benzoimidazol-2-yl-acryoyl)-6-fluoro-4-phenyl-1H-quinolin-2-one]
IC50 [1]: > 20 µM | IC50 [2]: 10 to 20 µM | IC50 [3]: 10 to 20 µM | IC50 (A375): < 2 µM | IC50 [4]: > 20 µM

COc1ccc2[nH]c(=O)c(C(=O)/C=C/c3nc4ccccc4[nH]3)c(-c3ccccc3)c2c1 [Compound 21, 3-(3-1H-Benzoimidazol-2-yl-acryloyl)-6-methoxy-4-phenyl-1H-quinolin-2-one]
IC50 [1]: 10 to 20 µM | IC50 [2]: 10 to 20 µM | IC50 [3]: > 20 µM | IC50 (A375): 2 to 10 µM | IC50 [4]: 10 to 20 µM

O=C(/C=C/c1nc2ccccc2[nH]1)c1c(-c2ccccc2)c2ccncc2[nH]c1=O [Compound 22, 3-(3-1H-Benzoimidazol-2-yl-acryloyl)-4-phenyl-1H-[1,7]naphthyridin-2-one]
IC50 [1]: 10 to 20 µM | IC50 [2]: 10 to 20 µM | IC50 [3]: 10 to 20 µM | IC50 (A375): > 20 µM | IC50 [4]: 10 to 20 µM
